Reference: ChEMBL document CHEMBL1150110, “Three novel protease inhibitors from a natural bloom of the cyanobacterium Microcystis aeruginosa” (J Nat Prod, 2002)
≈ marks a conversion by molar mass, not a printed value. Calls of active or inactive are those of the source. The calls are words filed in the database; no cut-off is given here.

How the values were obtained:
[1] = Inhibition of trypsin at 45.5 ug/mL preincubated for 5 mins before addition of substrate measured after 30 mins
[2] = Inhibition of chymotrypsin at 45.5 ug/mL preincubated for 5 mins before addition of substrate measured after 30 mins
[3] = Inhibition of trypsin preincubated for 5 mins before addition of substrate measured after 30 mins

Row | inhibition [1] | Activity [2] | IC50 [3] | SMILES
1 | 15% | – | – | CC(C)C[C@@H](NC(=O)[C@@H](O)Cc1ccc(O)cc1)C(=O)N1[C@@H]2C[C@H](O)CC[C@@H]2C[C@H]1C(N)=O
2 | – | inactive | 4.2 µg/mL (≈ 4.35 µM) | CC[C@H](C)[C@@H]1NC(=O)[C@H](Cc2ccc(O)cc2)N(C)C(=O)[C@H](Cc2ccccc2)N2C(=O)[C@H](CC[C@H]2O)NC(=O)[C@H](CCCNC(=N)N)NC(=O)[C@@H](NC(=O)[C@H](CC(=O)O)NC(C)=O)[C@@H](C)OC1=O [MICROPEPTIN E1964]
3 | – | inactive | 3.8 µg/mL (≈ 3.83 µM) | CCCC(=O)N[C@@H](CC(=O)O)C(=O)N[C@@H]1C(=O)N[C@@H](CCCNC(=N)N)C(=O)N[C@H]2CC[C@@H](O)N(C2=O)[C@@H](Cc2ccccc2)C(=O)N(C)[C@@H](Cc2ccc(O)cc2)C(=O)N[C@@H]([C@@H](C)CC)C(=O)O[C@@H]1C [MICROPEPTIN EI992]
